We go through one compound from paper PMC4876444, “Two-Photon Enzymatic Probes Visualizing Sub-cellular/Deep-brain Caspase Activities in Neurodegenerative Models” (Scientific Reports, 2016).

This data set deals with HeLa cells. Kind of data set: Permeability of free dye and probes in live cells (fluorescence imaging). The following applies: HeLa cells, DMSO/STS 1 μM 4 h, then probe 24 μM 1 h at 4 °C or 37 °C, one-photon imaging. It is filed as cell-based, human. On the procedure: Supplementary Figure 5. Detection of caspase activities in live mammalian cells. (a) One-photon images of AAN (5 μM)/probes (24 μM)/DMSO (blank) in live HeLa cells after 1-h incubation together with LysoTracker. (Panels 1-7) bright field; (Panels 8-14) λex = 405 nm, λem = 420-480 nm (indicative of probes, blue); (Panels 15-21) λex = 405 nm, λem = 470-500 nm (indicative of AAN, green); (Panels 22-28) LysoTracker (λex = 543 nm, λem = 560-615 nm, red); (Panels 29-35) merged images of blue/red channels. Scale bar: 20 μm. (b) Bioimaging of NIH/3T3 cells transfected with active caspase-1 (Panels 2/3/5/6; 50 ng)/caspase-3 (Panels 8/9; 15 ng)/caspase-8 (Panels 11/12; 5 ng) with/without inhibitor treatment (Panels 3/6/9/12, 50 μM of Z-VAD-FMK incubated for 1 h before probes were added) as well as control cells (Panels 1/4/7/10, no caspase transfection) by using C1RB (24 μM)/C1FS (12 μM) for caspase-1, C3RA (24 μM) for caspase-3 and C8RA (24 μM) for caspase-8. Cells were co-stained with membrane tracker. (Green) signals from caspase-cleaved probes (λex = 760 nm, λem = 480-550 nm for all probes, except for C1FS with λem = 450-550 nm). (Red) membrane tracker (λex = 650 nm, λem = 655-740 nm). (Inset) bright field. Scale bar = 10 μm. […]
XTT assay. The cytotoxicity of our probes was determined by using the XTT colorimetric cell proliferation kit (Roche) following manufacturer’s guidelines. […]

As for `CC(=O)N[C@@H](CC(=O)O)C(=O)N[C@@H](CCC(=O)O)C(=O)N[C@H](C(=O)N[C@@H](CC(=O)O)C(=O)Nc1ccc2cc(C(C)=O)ccc2c1)C(C)C` [C3RA, Ac-DEVD-AAN], the “endocytosis and endo/lysosomal trapping of the probe” value was “no obvious”.
